{"source": "paper PMC8765048", "about": "(JCI Insight, 2022)", "key": {"[1]": {"system": "SARS-CoV-2 P.1 (Gamma)", "assay": "microbe, parasite or virus in culture", "type": "cell-based"}, "[2]": {"system": "SARS-CoV-2 B.1.427 (Epsilon)", "assay": "microbe, parasite or virus in culture", "type": "cell-based"}, "[3]": {"system": "SARS-CoV-2 B.1.427 (Epsilon)", "assay": "microbe, parasite or virus in culture", "type": "cell-based", "remark": "listed apart in the source"}, "[4]": {"assay": "CellTiter-Glo cell viability assay", "type": "cell-based", "conditions": "human, HepG2 cells; HepG2, 72 h"}, "[5]": {"assay": "CellTiter-Glo cell viability assay", "type": "cell-based", "conditions": "human, Huh-7 cells; Huh-7, 72 h"}, "[6]": {"assay": "CellTiter-Glo cell viability assay, average of 8 cell types", "type": "cell-based", "conditions": "human (7 cell types) and grivet (Vero E6), average ± SEM, n = 8 cell types"}, "[7]": {"system": "multiple cell types", "assay": "CellTiter-Glo cell viability assay, average of 8 cell types", "type": "cell-based", "conditions": "average ± SEM, n = 8 cell types"}, "[8]": {"biological_target": "T1, KCNH2 (hERG) (Homo sapiens, UniProt Q12809)", "T1 construct": "expressed in transfected cells; host or cells: HEK293T", "T1 sequence (Q12809 whole entry)": "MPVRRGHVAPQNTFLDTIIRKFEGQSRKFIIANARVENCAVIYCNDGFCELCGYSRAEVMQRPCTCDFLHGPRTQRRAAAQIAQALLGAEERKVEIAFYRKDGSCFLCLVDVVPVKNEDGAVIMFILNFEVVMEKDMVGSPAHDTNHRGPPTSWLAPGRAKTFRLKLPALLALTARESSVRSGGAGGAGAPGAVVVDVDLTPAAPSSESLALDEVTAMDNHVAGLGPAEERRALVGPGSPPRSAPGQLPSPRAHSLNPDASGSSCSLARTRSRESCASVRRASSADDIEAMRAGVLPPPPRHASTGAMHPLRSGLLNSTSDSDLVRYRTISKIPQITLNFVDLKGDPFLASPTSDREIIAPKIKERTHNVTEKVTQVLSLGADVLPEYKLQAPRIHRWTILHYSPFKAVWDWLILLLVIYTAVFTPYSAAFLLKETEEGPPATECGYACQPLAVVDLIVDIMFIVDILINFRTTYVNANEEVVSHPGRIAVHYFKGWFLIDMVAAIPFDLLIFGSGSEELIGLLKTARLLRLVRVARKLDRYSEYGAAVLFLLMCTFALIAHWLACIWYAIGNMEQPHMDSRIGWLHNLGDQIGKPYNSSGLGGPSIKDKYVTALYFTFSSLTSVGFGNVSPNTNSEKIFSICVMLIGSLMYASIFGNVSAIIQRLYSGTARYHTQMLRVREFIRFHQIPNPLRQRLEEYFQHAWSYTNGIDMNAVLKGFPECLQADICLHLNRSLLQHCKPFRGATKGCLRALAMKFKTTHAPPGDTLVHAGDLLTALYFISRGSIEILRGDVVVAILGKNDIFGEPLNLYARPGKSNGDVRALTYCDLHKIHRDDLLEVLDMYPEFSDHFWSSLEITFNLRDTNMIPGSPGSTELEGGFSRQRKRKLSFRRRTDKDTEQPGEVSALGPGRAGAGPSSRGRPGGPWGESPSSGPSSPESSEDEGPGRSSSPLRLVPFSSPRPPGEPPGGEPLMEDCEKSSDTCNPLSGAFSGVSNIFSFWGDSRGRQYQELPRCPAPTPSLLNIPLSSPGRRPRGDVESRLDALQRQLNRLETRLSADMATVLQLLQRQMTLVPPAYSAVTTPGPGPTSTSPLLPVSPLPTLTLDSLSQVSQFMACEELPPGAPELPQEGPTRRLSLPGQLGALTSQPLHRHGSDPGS", "assay": "Potassium channel inhibition testing (QPatch HTX electrophysiology)", "type": "cell-based", "description": "The KCNH2 (hERG) functions as the α subunit of a cardiac potassium channel. Its inhibition by drugs has been implicated in fatal ventricular tachyarrhythmia ([31]). As a predictor of cardiotoxicity and genotoxicity, we therefore evaluated KCNH2 (hERG) inhibition and genotoxicity in the AMES mutagenicity assay.\nRuling out inhibition of KCNH2 (hERG) by a novel compound is a mandatory step in establishing drug safety. The effect of sangivamycin on KCNH2-derived cardiac potassium channels was assessed using HEK293T cells and the QPatch HTX electrophysiology platform (Evotech), following the manufacturer’s instructions. Sangivamycin was tested at 6 concentrations (cumulative concentration response, high test concentration of 10 μM). The percentage change in potassium channel tail current was used to calculate channel inhibition."}, "[9]": {"system": "Salmonella typhimurium", "assay": "AMES mutagenicity testing (Salmonella typhimurium reverse mutation assay)", "type": "cell-based", "protocol": "The standard AMES (Salmonella typhimurium reverse mutation assay, ref. [43]) was performed by Cyprotex to evaluate the mutagenic potentials of sangivamycin. Approximately 10 million bacteria were exposed in triplicate to sangivamycin (6 concentrations, 1 mg/mL high test concentration), a negative control (vehicle), and a positive control for 90 minutes in medium containing a low concentration of histidine (sufficient for about 2 doublings). The cultures were then diluted into indicator medium lacking histidine and dispensed into 48 wells of 384-well plates (microplate format). Plates were incubated for 48 hours at 37°C. In the microsuspension assay, cells that undergo a mutagenic reversion grow, resulting in a color change that is scored as positive wells. Wells with bacterial growth were counted and compared with those with vehicle control. A dose-dependent increase in the number of colonies of at least 2-fold over baseline (mean + SD of the vehicle control) indicated a positive response."}, "[10]": {"assay": "Plasma protein binding assessment (equilibrium dialysis)", "type": "in vitro ADME", "conditions": "37°C", "protocol": "The plasma protein binding assay was performed by Cyprotex to assess sangivamycin plasma protein binding. Equilibrium dialysis was used to determine the extent of binding of a compound to plasma proteins. A semipermeable membrane separated a protein-containing compartment (PC) from a protein-free compartment (PF). The system was set to equilibrate at 37°C. The test compound present in each compartment was then quantified by LC-MS/MS. The extent of binding is reported as a fraction unbound (fu) value, which is calculated as fu = 1 – ([PC – PF]/PC)."}, "[11]": {"assay": "24-hour plasma pharmacokinetics in CD-1 laboratory mice", "type": "in vivo, mouse", "conditions": "for apparent volume of distribution / total clearance / area under the curve to the last time point / Cmax: CD-1 mice, i.p. 60 mg/kg; for area under the curve to the last time point: 24 h; for Cmax: mouse, plasma, ip", "protocol": "We next evaluated the 24-hour pharmacokinetics (PK) of sangivamycin in CD-1 laboratory mouse plasma. Sangivamycin’s plasma concentrations increased following i.p. injection of 60 mg/kg to a peak at 2 hours, then decreased over 6 or 8 hours, and remained virtually unchanged up to 24 hours after dosing. […] Graphing plasma concentration versus time produced an area under the curve to the last time point with values of 632 ± 66.6 h•ng/mL for males and 833 ± 53.9 h•ng/mL for females. […] Our data corroborate historical PK studies in mice with ^3H-labeled sangivamycin performed at the NCI in 1974 ([20]). In these studies, free nucleoside and mono-, di-, and triphosphate forms of sangivamycin were detected in blood, urine, and multiple tissues (e.g., heart, liver, brain, spleen, and kidneys) following i.p. injection of 8 mg/kg. The studies established that sangivamycin was phosphorylated after transportation into cells. In liver, heart, and brain, the predominant form of sangivamycin was sangivamycin 5′-monophosphate (SMP). […] Therefore, we determined the level of SMP in blood in our PK study using a published liquid chromatography–tandem mass spectrometry (LC-MS/MS) method with a lower limit of quantification of 1 ng/mL ([33]). Using this method, we detected SMP in the plasma of dosed mice but not control mice (Supplemental Figure 9B). The apparent levels of SMP increased in blood during the 24 hours of this study. There also was possible presence of a diphosphate metabolite of sangivamycin, but it was detected only in the plasma samples taken 24 hours after dosing."}, "[12]": {"system": "Ebola virus RNA-directed RNA polymerase (RdRp) activity", "conditions": "in vitro; cited from earlier work"}, "[13]": {"conditions": "mice, cited from earlier work"}, "[14]": {"system": "grivets", "conditions": "10 days at 1.6 mg/kg/d and 28 days at 0.4 mg/kg/d; cited from earlier work"}, "[15]": {"system": "HepG2 (human hepatocarcinoma)", "assay": "CellTox Green Cytotoxicity Assay", "conditions": "ratio > 1 cytostatic, ≤ 1 cytotoxic"}, "[16]": {"system": "Huh-7 (human hepatocarcinoma)", "assay": "CellTox Green Cytotoxicity Assay", "conditions": "ratio > 1 cytostatic, ≤ 1 cytotoxic"}, "[17]": {"conditions": "Severe acute respiratory syndrome coronavirus 2, Vero C1008, 24 h"}, "[18]": {"conditions": "Severe acute respiratory syndrome coronavirus 2, Calu-3, 24 h"}}, "note": "Like-named read-outs stand apart in the source and are kept apart here.", "data": [{"compound": "NC(=O)c1cn([C@@H]2O[C@H](CO)[C@@H](O)[C@H]2O)c2ncnc(N)c12", "note": "[Sangivamycin, sangivamycin]", "values": [{"measurement": "SI (selectivity index, CC50/IC50)", "setting": "[1]; P.1 (Gamma), Vero E6 cells", "value": ">22.2"}, {"measurement": "IC50", "setting": "[1]; [17]", "value": 27.1, "unit": "nM"}, {"measurement": "IC90", "setting": "[1]; [17]", "value": 245, "unit": "nM"}, {"measurement": "SI (selectivity index, CC50/IC50)", "setting": "[2]; B.1.427 (Epsilon), Vero E6 cells", "value": ">32.3"}, {"measurement": "IC50", "setting": "[2]; [17]", "value": 18.6, "unit": "nM"}, {"measurement": "IC90", "setting": "[2]; [17]", "value": 212, "unit": "nM"}, {"measurement": "SI (selectivity index, CC50/IC50)", "setting": "[3]; B.1.427 (Epsilon), Calu-3 cells", "value": ">7.3"}, {"measurement": "IC50", "setting": "[3]; [18]", "value": 82.2, "unit": "nM"}, {"measurement": "IC90", "setting": "[3]; [18]", "value": 341, "unit": "nM"}, {"measurement": "CC50 at 72 h", "setting": "[4]", "value": 1770, "unit": "nM"}, {"measurement": "CC50 at 72 h", "setting": "[5]", "value": 487, "unit": "nM"}, {"measurement": "CC50", "setting": "[6]", "value": "617 ± 181", "unit": "nM"}, {"measurement": "CC50", "setting": "[7]", "value": "607 ± 182", "unit": "nM"}, {"measurement": "IC50", "setting": "[8]", "value": "> 10000", "unit": "nM"}, {"measurement": "effect on the KCNH2 (hERG)", "setting": "[8]; 10 μM", "value": "had no effect"}, {"measurement": "AMES genotoxicity test", "setting": "[9]; 1 mg/mL [3.2 mM] high test concentration", "value": ">1", "unit": "mg/mL"}, {"measurement": "bacterial mutagenicity", "setting": "[9]; up to 3.2 mM", "value": "no evidence of enhanced bacterial mutagenicity"}, {"measurement": "fraction unbound", "setting": "[10]; human", "value": 0.83}, {"measurement": "fraction unbound", "setting": "[10]; mouse", "value": 0.879}, {"measurement": "apparent volume of distribution", "setting": "[11]; females", "value": "167,000 mL/kg"}, {"measurement": "total clearance", "setting": "[11]; females", "value": "68,500 mL/h/kg"}, {"measurement": "area under the curve to the last time point", "setting": "[11]; females", "value": "833 ± 53.9", "unit": "ng·h/mL"}, {"measurement": "apparent volume of distribution", "setting": "[11]; males", "value": "369,000 mL/kg"}, {"measurement": "total clearance", "setting": "[11]; males", "value": "85,400 mL/h/kg"}, {"measurement": "area under the curve to the last time point", "setting": "[11]; males", "value": "632 ± 66.6", "unit": "ng·h/mL"}, {"measurement": "Cmax", "setting": "[11]; female, females (285 ng/mL), read-out: Cmax, molar equivalent", "value": 922, "unit": "nM"}, {"measurement": "Cmax", "setting": "[11]; female, females, read-out: Cmax of the plasma", "value": "285 ± 35.9", "unit": "ng/mL"}, {"measurement": "Cmax", "setting": "[11]; male, males (97.3 ng/mL), read-out: Cmax, molar equivalent", "value": 314, "unit": "nM"}, {"measurement": "Cmax", "setting": "[11]; male, males, read-out: Cmax of the plasma", "value": "97.3 ± 31", "unit": "ng/mL"}, {"measurement": "Cmax relative to the average IC90 in the 3 cell lines tested", "setting": "[11]; mouse plasma Cmax 314 nM and 922 nM", "value": "3- to 9 fold"}, {"measurement": "effect of remdesivir and sangivamycin combined", "setting": "[12]", "value": "additive effect"}, {"measurement": "half-life in blood", "setting": "[13]; 3H-labeled sangivamycin, i.p. 8 mg/kg", "value": 50, "unit": "h"}, {"measurement": "drug-derived radioactivity accounted for in the urine", "setting": "[13]; over a period of 12 days", "value": 40, "unit": "%"}, {"measurement": "tolerability", "setting": "[14]", "value": "tolerated"}, {"measurement": "Ratio CellTox Green/CellTiter-Glo", "setting": "[15]", "value": ">2.82"}, {"measurement": "Ratio CellTox Green/CellTiter-Glo", "setting": "[16]", "value": ">10.3"}]}]}
